Experimental data from US8642660B2, “Method for altering the lifespan of eukaryotic organisms” (The University of Rochester, priority 2007, dated 2014).

Assays:
yeast cells [1] = assay: "775" DeaD assay, single-concentration screen for countering nicotinamide lifespan shortening; type: cell-based, Saccharomyces cerevisiae; set-up: key: compounds that exhibited >26% inhibition are defined as active; Compounds that exhibited <=26% inhibition are defined as inactive; conditions: compounds 10 uM, 1.5 mM nicotinamide, 48 hours, OD615
Text: Having established the suitability of the DeaD assay as a proxy for microdissection, the DeaD assay was used to screen a 132,796 compound library for the ability of compounds in the library to counter the lifespan-shortening effect of nicotinamide.
Specifically, as described in the AID 775 assay results (synonymously, the “775” assay results) on the “PubChem” website at pubchem.ncbi.nlm.nih.gov/assay/assay.cgi?aid=775, the contents of which are herein incorporated in their entirety by reference, the percent inhibition of nicotinamide lifespan shortening, i.e. percent reversal of nicotinamide effect on lifespan, was calculated using the optical density in control wells with cells treated with 1.5 mM nicotinamide as full lifespan shortening effect of nicotinamide (0% inhibition of nicotinamide), and wells with cells grown in medium without nicotinamide as an indicator of 100% inhibition. The appropriate compounds in the PubChem compound library (about 132,000 compounds selected from the total library of about 10 million compounds) were screened at 10 uM in the presence of 1.5 mM nicotinamide. For further details, see, e.g., the following references: Jarolim, S., Millen, J., Heeren, G., Laun, P., Goldfarb, D. S. and M. Breitenbach. (2004). A novel assay for replicative lifespan in Saccharomyces cerevisiae. FEMS Yeast Res. 5, 169-177; Bitterman, K. J., Anderson, R. M., Cohen, H. Y., Latorre-Esteves, M., and D. A. Sinclair. (2002). Inhibition of silencing and accelerated aging by nicotinamide, a putative negative regulator of yeast Sir2 and human SIRT1. J. Biol. Chem. 277, 45099-45107; Tsuchiya, M., Dang, N., Kerr, E. O., Hu, D., Steffen, K. K., Oakes, J. A., Kennedy, B. K. and M. Kaeberlein (2006) Sirtuin-independent effects of nicotinamide on lifespan extension from calorie restriction in yeast. Aging Cell. 5, 505-514.
Assays were conducted as follow. Cells were streaked out on a YPGal agar plate and grown for 48 hours at 30° C. Four colonies were selected, 50 mL of YPGal medium in a flask was inoculated and grown at 30° C. with shaking O/N. OD600 was measured. The OD should be <0.7 for the cells to be in log phase. The cells were centrifuged, washed once and resuspended in CSMM-D restrictive growth medium. OD600 was measured again. The culture was diluted to an OD600 of 0.002 in CSMM-D restrictive medium. The culture was pre-incubated in a flask with shaking at 30° C. for 4 hours. At the end of the pre-incubation, OD600 was measured for reference. Nicotinamide (negative control), medium alone (positive control) and compounds in the presence of nicotinamide were plated with DMSO at 10× concentration (final concentrations: nicotinamide 1.5 mM, compounds 10 uM, DMSO 0.25%) in 384-well plates: 5 uL/well. The yeast was added to the plates: 45 uL/well. Plates were incubated at 30 C in a humidified chamber. After 48 hours incubation, plates were shaken for 30 seconds and OD615 was read in an EnVision (PerkinElmer) multilabel plate reader. For these assays, YPGal medium was prepared as 10 grams yeast extract, 20 grams peptone, 900 mL water, autoclave at 121° C. for 15 minutes, add 100 mL sterile 20% (w/v) galactose. CSMM-D (Complete Synthetic Minimal Medium-Dextrose) (restrictive) medium was prepared as 6.7 grams yeast nitrogen base without amino acids, 2.0 grams Drop-out mix complete (DOC) (USBiological Cat. no. D9515), 100 mL 20% (w/v) dextrose, water to 1.0 L, then filter sterilize.
An activity threshold of >26% was calculated as greater than three standard deviations from the median compound inhibition. […] Because of the inherent error in all high-throughput screens including the fallacy of over-interpreting single dose data, a tiered scoring system was adopted for this Example, in which compounds were scored on a scale of 0-40 based on activity, with a scaled activity threshold of 11. Using this tiered scoring system, the compounds were ranked, with 906 of these compounds defined as “active” using this tiered scoring system. […]

yeast cells [2] = assay: Standard microdissection replicative lifespan assay (FIG. 4); type: cell-based, Saccharomyces cerevisiae
Experimental: FIG. 4 provides standard microdissection lifespans for nicotinamide in the presence of nalidixic acid and 5 mM nicotinamide. Three experiments that included three concentrations of nalidixic acid all increased mean lifespans (shown in parentheses) and maximum lifespans. In this Figure, “#864” refers to nalidixic acid, e.g., the second entry in the legend refers to 54 uM nalidixic acid, the third entry refers to 107 uM nalidixic acid, etc. The number presented in parentheses in the figure legend refers to the mean lifespan of the population in each experiment presented in this Figure, e.g., the control population (5 mM nicotinamide only) has a mean lifespan of 14.2 generations, etc.
In order to verify the data of Example 4 for nalidixic acid, microdissection experiments were performed using this compound to counter the effect of nicotinamide, with the results of these experiments shown in FIG. 4.

DeaD strain = assay: DeaD assay validation with nicotinamide (FIG. 2); type: cell-based, Saccharomyces cerevisiae; conditions: 0.5, 0.75, 1 mM NIC
Experimental: Panel A: Under growth in glucose (nonpermissive conditions) DeaD lifespans are reduced in a dose-dependent fashion by increasing concentrations of nicotinamide. […] The lines shown in panel A correspond to (top to bottom) 0, 0.5, 0.75, and 1 mM NIC. The 3 lines visible in panel B correspond to (topmost to bottommost), 0.5, 0.75, or 1 mM NIC; the 0 mM NIC line is not visible.
The DeaD assay was developed as a high throughput proxy for conventional microdissection assays used to determine yeast replicative ageing. In order to verify the ability of this assay to produce results corresponding to conventional microdissection assay results, the data of FIG. 1 were obtained using either the DeaD assay (panel A) or via microdissection (panel B).

C. elegans = conditions: Pnc1 and SIR2-ortholog dependent; Van der Horst et al. 2007; cited from earlier work
DeaD strain BB579 = assay: "809" DeaD assay, dose-response screen (EC50) in presence of nicotinamide; type: cell-based, Saccharomyces cerevisiae; set-up: key: An activity threshold of EC50<=10 uM was set and compounds that met this criterion are defined as active; Compounds that exhibited an EC50>10 uM are defined as inactive; conditions: compounds 0.078-10 uM, 1.5 mM nicotinamide, 48 hours
Experimental: As already discussed, Example 2 provides data using the “775” DeaD assay to determine compounds that counter the lifespan-reducing effects of 1.5 mM nicotinamide, with this Example identifying about 900 “active” compounds. Example 2 used only a single compound concentration of 10 uM; in the current Example, the top 500 of these “active” compounds were again screened using the DeaD assay, but now at 8 concentrations ranging from 0.078 to 10 uM, again in the presence of 1.5 mM nicotinamide, resulting in the data provided in Table 1. This more extensive data allowed for the determination of the half maximal effective concentration (EC50). See the “AID 809” assay (the “809” assay) results on the PubChem website at pubchem.ncbi.nlm.nih.gov/assay/assay.cgi?aid=809.
Thus, in this Example compounds were screened in an 8-point 2-fold dilution series ranging from 0.078 to 10 uM in the presence of 1.5 mM nicotinamide. The percent activation of lifespan, i.e. percent reversal of nicotinamide effect on lifespan, was calculated using the optical density in control wells with cells treated with 1.5 mM nicotinamide as full lifespan shortening effect of nicotinamide (0% activation), and wells with cells grown in medium without nicotinamide as an indicator of 100% activation. From the % activation values of the different compound concentrations, the half maximal effective concentration (EC50) was calculated using IDBS ActivityBase software and XLfit equation 205 for a four parameter logistic fit; the maximum and minimum values were fixed at 100% and 0%.
Assays were conducted as follow. Cells (DeaD strain BB579) were streaked out on a YPGal agar plate and grown for 48 hours at 30° C. Four colonies were selected, 50 mL of YPGal medium in a flask was inoculated and grown at 30 C with shaking O/N. OD600 was measured. The OD should be <0.7 for the cells to be in log phase. […] OD600 was measured again. […] At the end of the pre-incubation, OD600 was measured for reference. […] After 48 hours incubation, plates were shaken for 30 seconds and OD615 was read in an EnVision (PerkinElmer) multilabel plate reader. […]

yeast cells [3] = assay: Full DeaD assay lifespan timecourse (FIG. 3); type: cell-based, Saccharomyces cerevisiae; conditions: 2.5, 5.0, 10 uM, nonpermissive conditions
Experimental: FIG. 3 provides a plot showing DeaD assays for compound SID 855620 (nalidixic acid) in the presence and absence of nicotinamide. The nalidixic acid was incubated with growing cells under nonpermissive conditions at concentrations of 2.5, 5.0, and 10 uM (micromolar) in the presence and absence of 1.5 mM nicotinamide. Control experiments for growth in the presence and absence of nicotinamide without the drug are included. The last three entries showing the line labeling are all results obtained with 1.5 mM nicotinamide and, respectively, 2.5, 5 or 10 uM nalidixic acid. The data lines shown in this figure correspond to (topmost to bottommost as they appear at the extreme right side of the data lines): 2.5, 10, or 5 uM nalidixic acid (no nicotinamide); blank cells (labeled “no NIC”); 5 or 10 uM nalidixic acid plus 1.5 mM nicotinamide (in both cases); 10 uM nalidixic acid (no nicotinamide); and, blank cells with 1.5 mM nicotinamide (labeled “1.5 mM NIC”).
In order to validate the results of the “809” experiment of Example 3, timecourses for the effect of the top 70 compounds identified in Example 3 may be performed using the DeaD assay for, e.g., a 140 hour interval for each of these compounds. […]

[4] = 5 mM nicotinamide, three concentrations of nalidixic acid

Structure (SMILES) | activity in the 775 assay (percent inhibition of nicotinamide lifespan shortening) (yeast cells [1]) | activity in the 809 assay (EC50) (DeaD strain BB579) | also measured
CCCC(=O)C1C(=O)CC(C)(C)C(c2cc(C)no2)C1=O (stereo not shown) [SID 7972147] | active |  | 
NC(=O)c1cccnc1 [nicotinamide] |  |  | mean lifespan (yeast cells [2]; control population, 5 mM nicotinamide only): 14.2 generations; growth under permissive conditions (DeaD strain; growth in galactose (permissive conditions)): without altering growth; DeaD lifespan (DeaD strain; growth in glucose (nonpermissive conditions)): reduces the lifespan of the DeaD strain in a dose-dependent fashion; C. elegans lifespan (C. elegans): reduce C. elegans lifespan
CCOc1ccc(CC(=O)C2C(=O)CC(C)(C)CC2=O)cc1OCC [SID 14732962] | inactive |  | 
COC(=O)CCCCC(=O)C1C(=O)CC(C)(C)C(C(=O)OC)C1=O (stereo not shown) [SID 7972920] | inactive |  | 
CC1(C)CC(=O)C(C(=O)CCCCC(=O)C2C(=O)CC(C)(C)CC2=O)C(=O)C1 [SID 4245034] | inactive |  | 
CCCC(=O)C1C(=O)CC(CC(C)SCC)CC1=O (stereo not shown) [SID 14732512] | active | active | 
CC1(C)CC(=O)C(C(=O)Cc2ccccc2[N+](=O)[O-])C(=O)C1 [SID 17511642] | active | active | 
CCn1cc(C(=O)O)c(=O)c2ccc(C)nc21 [nalidixic acid] |  |  | DeaD lifespan (yeast cells [3]; in the absence of nicotinamide): extends DeaD lifespan; DeaD lifespan (yeast cells [3]; in the presence of 1.5 mM nicotinamide): extends DeaD lifespan; maximum lifespan (yeast cells [2]; [4]): increased; mean lifespan (yeast cells [2]; [4]): increased
CCOC(=O)C1C(=O)C(C(C)=O)C(=O)CC1CC(C)SCC (stereo not shown) [SID 14724551] | active | active | 
Cc1cc(C2C(=O)C(C(=O)c3ccc(Cl)cc3)C(=O)CC2(C)C)on1 (stereo not shown) [SID 842694] | inactive |  | 
